The record followed here is US12281122B1, “PI3K inhibitors” (Cogent Biosciences, Inc., priority 2023, dated 2025).

Molecules are shown by their SMILES.

One experiment addresses PI3Kα (Homo sapiens, UniProt P42336). In words: PI3Kα enzyme assay (Transcreener ADP2 TR-FRET Red Assay). The class given is biochemical. To be noted: purified recombinant full-length protein; 2 hours pre-incubation with compound; read-out: PI3Kα WT IC50. On the procedure:
(§1) Activity against PI3Kα and PI3Kα H1047R enzymes were determined in biochemical assays using purified recombinant full-length proteins with the Transcreener ADP^2 TR-FRET Red Assay from Bellbrook Labs. (Catalogue number 3011-10K). Test compounds were dissolved in DMSO and were tested in 11 point 1:3 serial dilutions, typical final concentration range from 50,000 nM to 0.85 nM. Enzymes were pre-incubated with compounds for 2 hours at room temperature prior to initiating the reactions. Assays were initiated with a 2×ATP/PI(4,5)P2 diC8 substrate mixture. After 60 minutes at room temperature, the reactions were quenched with detection reagent and incubated for an additional 60 minutes at room temperature. The plates were read using a multimode reader and the emission ratio of 665 nm to 615 nm was determined. This ratio was converted to percent of control (POC). [1-(high control-sample signal)/(high control-low control)]*100. Wells without compound were used to determine high control values and wells without enzyme were used to determine low control values. The POC values were fit using a four-parameter logistic model and the value where the fit curve was equal to 50 POC was reported as the IC50 using the Signals VitroVivo software package (PerkinElmer). Final assay conditions were: 40 mM HEPES pH 7.5, 20 mM NaCl, 25 mM MgCl2, 0.01% Triton X-100. The enzyme source, catalogue number, final enzyme concentration, and final ATP and PI(4,5)P2 diC8 concentration can be found in the table E10 below.
On the technique in general: TR-FRET usually uses a lanthanide donor and a delayed reading to cut background.

Another experiment addresses PI3Kα H1047R (Homo sapiens, UniProt P42336, H1047R). In words: PI3Kα H1047R enzyme assay (Transcreener ADP2 TR-FRET Red Assay). The format is biochemical. To be noted: purified recombinant full-length protein; 2 hours pre-incubation with compound. Here is the method: as §1
The test system of experiment [1] is T47D (PI3Kα-H1047R) cell line. The experiment can be described thus: HTRF phospho-AKT(S473) cell assay in T47D cells. The format is cell-based, human. To be noted: Homo sapiens; T47D (PI3Kα-H1047R) cells, HTRF phospho-AKT(S473), 2 hours compound incubation. The gist of the method:
(§2)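 Cells plated overnight (T47D in RPMI/10% FBS/0.2 units/mL insulin; SKBR3 in McCoy's 5A/10% FBS), then given 12-point 1:3 compound series (top 5 μM T47D, 10 μM SKBR3; ≤0.5% DMSO) for 2 h at 37° C. SKBR3 stimulated with 70 ng/ml PDGF-BB for final 15 min. Lysate pAKT(S473) by HTRF; IC50 calculated.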

In experiment [2] the test system is SKBR3 (PI3Kα-Wild Type) cell line. In words: HTRF phospho-AKT(S473) cell assay in SKBR3 cells. The class given is cell-based, human. To be noted: Homo sapiens, SK-BR-3; SKBR3 (PI3Kα-Wild Type) cells, HTRF phospho-AKT(S473), 2 hours compound incubation, PDGF-BB stimulated. In a few lines:
as §2

Sequence of PI3Kα H1047R (P42336 whole entry H1047R): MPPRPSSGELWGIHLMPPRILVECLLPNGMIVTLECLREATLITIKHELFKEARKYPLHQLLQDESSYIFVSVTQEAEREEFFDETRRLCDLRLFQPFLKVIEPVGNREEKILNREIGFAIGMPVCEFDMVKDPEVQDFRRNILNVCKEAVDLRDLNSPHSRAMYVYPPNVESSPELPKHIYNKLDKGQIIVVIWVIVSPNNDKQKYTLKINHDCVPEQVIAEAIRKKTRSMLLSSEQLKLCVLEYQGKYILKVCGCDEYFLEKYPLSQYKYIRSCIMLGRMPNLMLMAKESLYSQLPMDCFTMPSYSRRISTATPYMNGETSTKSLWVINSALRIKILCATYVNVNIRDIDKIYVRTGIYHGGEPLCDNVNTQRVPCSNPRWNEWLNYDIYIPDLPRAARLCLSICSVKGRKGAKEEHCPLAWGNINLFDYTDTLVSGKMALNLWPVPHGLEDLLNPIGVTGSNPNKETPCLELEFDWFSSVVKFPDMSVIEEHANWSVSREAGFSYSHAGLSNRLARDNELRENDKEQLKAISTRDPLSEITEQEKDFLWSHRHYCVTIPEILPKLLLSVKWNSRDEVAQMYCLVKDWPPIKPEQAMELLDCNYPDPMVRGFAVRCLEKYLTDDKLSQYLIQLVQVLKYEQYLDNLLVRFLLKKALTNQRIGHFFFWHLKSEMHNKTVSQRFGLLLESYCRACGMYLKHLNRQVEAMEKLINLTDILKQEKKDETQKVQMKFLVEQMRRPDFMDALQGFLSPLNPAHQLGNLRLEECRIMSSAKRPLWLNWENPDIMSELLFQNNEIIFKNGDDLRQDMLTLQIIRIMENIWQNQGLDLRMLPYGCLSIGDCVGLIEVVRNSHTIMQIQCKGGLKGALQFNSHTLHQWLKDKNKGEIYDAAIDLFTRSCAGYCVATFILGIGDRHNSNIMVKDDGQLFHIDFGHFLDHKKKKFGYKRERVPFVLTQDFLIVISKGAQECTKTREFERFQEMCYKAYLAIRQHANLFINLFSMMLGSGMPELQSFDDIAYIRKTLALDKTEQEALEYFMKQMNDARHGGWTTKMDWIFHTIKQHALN
Sequence of PI3Kα H1047R (P27986 2-724 partner): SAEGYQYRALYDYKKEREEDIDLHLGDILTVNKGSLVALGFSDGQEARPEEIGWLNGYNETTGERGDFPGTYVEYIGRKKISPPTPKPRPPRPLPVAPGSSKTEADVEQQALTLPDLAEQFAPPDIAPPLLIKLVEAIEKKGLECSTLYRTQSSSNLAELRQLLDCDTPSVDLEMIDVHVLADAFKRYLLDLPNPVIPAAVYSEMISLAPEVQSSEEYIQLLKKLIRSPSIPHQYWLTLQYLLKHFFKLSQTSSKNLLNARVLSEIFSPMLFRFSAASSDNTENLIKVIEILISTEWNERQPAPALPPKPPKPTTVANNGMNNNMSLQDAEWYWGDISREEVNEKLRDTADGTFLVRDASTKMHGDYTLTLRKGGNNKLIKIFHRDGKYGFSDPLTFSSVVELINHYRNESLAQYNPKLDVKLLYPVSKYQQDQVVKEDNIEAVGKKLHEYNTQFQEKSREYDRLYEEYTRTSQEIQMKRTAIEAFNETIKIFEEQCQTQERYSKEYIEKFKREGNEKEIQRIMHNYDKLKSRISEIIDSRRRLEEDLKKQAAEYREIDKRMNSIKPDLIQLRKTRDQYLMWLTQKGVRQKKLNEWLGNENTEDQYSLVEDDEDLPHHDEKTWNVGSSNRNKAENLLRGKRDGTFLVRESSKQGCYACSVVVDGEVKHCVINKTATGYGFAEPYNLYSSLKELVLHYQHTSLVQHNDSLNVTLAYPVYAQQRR
Sequence of PI3Kα (P42336 whole entry): as the sequence (P42336 whole entry H1047R) above, with R1047H counted along it
Sequence of PI3Kα (P27986 2-724 partner): as the sequence (P27986 2-724 partner) above

`Cc1cc([C@@H](C)Nc2ccc(Cl)nc2C(=O)NS(C)(=O)=O)c2nc(N(C)Cc3cnn(C)c3)n(C)c(=O)c2c1` [Compound 48, (R)-6-chloro-3-((1-(3,6-dimethyl-2-(methyl((1-methyl-1H-pyrazol-4-yl)methyl)amino)-4-oxo-3,4-dihydroquinazolin-8-yl)ethyl)amino)-N-(methylsulfonyl) picolinamide]: the IC50 at PI3Kα was at least 1000 nM; on PI3Kα H1047R, 100 to 250 nM; in experiment [1] it was under 250 nM; in experiment [2], 1000 to 5000 nM.

Consider `Cc1cc([C@@H](C)Nc2ccc(F)cc2C(=O)NS(C)(=O)=O)c2nc(N3CCC(F)(F)CC3)n(C)c(=O)c2c1` [Compound 62, (R)-2-((1-(2-(4,4-difluoropiperidin-1-yl)-3,6-dimethyl-4-oxo-3,4-dihydroquinazolin-8-yl)ethyl)amino)-5-fluoro-N-(methyl-sulfonyl)benzamide], for which the IC50 at PI3Kα was at least 1000 nM; on PI3Kα H1047R it was under 100 nM; in experiment [1], 1000 to 5000 nM; in experiment [2], 1000 to 5000 nM.

With `Cc1cc([C@@H](C)Nc2ccccc2S(=O)(=O)NC(=O)C(F)F)c2nc(N3Cc4ccc(F)cc4C3)n(C)c(=O)c2c1` [Compound 75, (R)-2,2-difluoro-N-((2-((1-(2-(5-fluoroisoindolin-2-yl)-3,6-dimethyl-4-oxo-3,4-dihydroquinazolin-8-yl)ethyl)amino)phenyl)sulfonyl)acetamide], the IC50 was at least 1000 nM on PI3Kα, at least 1000 nM on PI3Kα H1047R, 1000 to 5000 nM in experiment [1] and at least 5000 nM in experiment [2].

Take `COc1nc(Cl)ccc1N[C@H](C)c1cc(C)cc2c(=O)n(C)c(N3Cc4ccc(F)cc4C3)nc12` [Compound 96, (R)-8-(1-((6-chloro-2-methoxypyridin-3-yl)amino)ethyl)-2-(5-fluoroisoindolin-2-yl)-3,6-dimethylquinazolin-4(3H)-one]: the IC50 was at least 1000 nM at PI3Kα, at least 1000 nM on PI3Kα H1047R, 1000 to 5000 nM in experiment [1] and at least 5000 nM in experiment [2].

As to `C[C@@H](Nc1ccc(Cl)nc1C(=O)NS(C)(=O)=O)c1cc(F)cc2c(=O)n(C)c(N3Cc4cn(C)nc4C3)nc12` [Compound 37, (R)-6-chloro-3-((1-(6-fluoro-3-methyl-2-(2-methyl-2,6-dihydropyrrolo[3,4-c]pyrazol-5(4H)-yl)-4-oxo-3,4-dihydroquinazolin-8-yl)ethyl)amino)-N-(methylsulfonyl) picolinamide], the IC50 on PI3Kα is at least 1000 nM; at PI3Kα H1047R it was 250 to 500 nM; in experiment [1], under 250 nM; in experiment [2], 500 to 1000 nM.

As to `Cc1cc([C@@H](C)Nc2ccn[nH]c2=O)c2nc(N3Cc4ccc(F)cc4C3)n(C)c(=O)c2c1` [Compound 95, (R)-2-(5-fluoroisoindolin-2-yl)-3,6-dimethyl-8-(1-((3-oxo-2,3-dihydropyridazin-4-yl)amino)ethyl)quinazolin-4(3H)-one], the IC50 at PI3Kα is at least 1000 nM; at PI3Kα H1047R it was at least 1000 nM; in experiment [1], 1000 to 5000 nM; in experiment [2], 1000 to 5000 nM.

With `Cc1cc([C@@H](C)Nc2ccc(Cl)nc2C(=O)NS(C)(=O)=O)c2nc(NC3CCCC3)n(C)c(=O)c2c1` [Compound 11, (R)-6-chloro-3-((1-(2-(cyclopentylamino)-3,6-dimethyl-4-oxo-3,4-dihydroquinazolin-8-yl)ethyl)amino)-N-(methylsulfonyl) picolinamide], the IC50 on PI3Kα was at least 1000 nM; at PI3Kα H1047R, 250 to 500 nM; in experiment [1] it was 250 to 500 nM; in experiment [2], at least 5000 nM.

On to `Cc1cc([C@@H](C)Nc2ccc(Cl)nc2C(=O)NS(C)(=O)=O)c2nc(-c3cnc(C)s3)n(C)c(=O)c2c1` [Compound 89, (R)-6-chloro-3-((1-(3,6-dimethyl-2-(2-methylthiazol-5-yl)-4-oxo-3,4-dihydroquinazolin-8-yl)ethyl)amino)-N-(methylsulfonyl) picolinamide], for which the IC50 is 500 to 1000 nM on PI3Kα, 100 to 250 nM on PI3Kα H1047R, under 250 nM in experiment [1] and 1000 to 5000 nM in experiment [2].

On to `Cc1cc([C@@H](C)Nc2cc(F)cnc2C(=O)NS(C)(=O)=O)c2nc(N3Cc4ccc(F)cc4C3)n(C)c(=O)c2c1` [Compound 68, (R)-5-fluoro-3-((1-(2-(5-fluoro-isoindolin-2-yl)-3,6-dimethyl-4-oxo-3,4-dihydroquinazolin-8-yl)ethyl)amino)-N-(methylsulfonyl) picolinamide], for which the IC50 at PI3Kα is at least 1000 nM; at PI3Kα H1047R, at least 1000 nM; in experiment [1], 1000 to 5000 nM; in experiment [2], at least 5000 nM.

As for `Cc1cc([C@@H](C)Nc2ccc[nH]c2=O)c2nc(N3Cc4ccc(F)cc4C3)n(C)c(=O)c2c1` [Compound 94, (R)-2-(5-fluoroisoindolin-2-yl)-3,6-dimethyl-8-(1-((2-oxo-1,2-dihydropyridin-3-yl)amino)ethyl)quinazolin-4(3H)-one], the IC50 on PI3Kα was at least 1000 nM; at PI3Kα H1047R it was at least 1000 nM; in experiment [1], 1000 to 5000 nM; in experiment [2], at least 5000 nM.

In the case of `Cc1cc([C@@H](C)Nc2ccc(Cl)nc2C(=O)NS(C)(=O)=O)c2nc(NCc3ccc(F)cc3C)n(C)c(=O)c2c1` [Compound 17, (R)-6-chloro-3-((1-(2-((4-fluoro-2-methylbenzyl)amino)-3,6-dimethyl-4-oxo-3,4-dihydroquinazolin-8-yl)ethyl)amino)-N-(methylsulfonyl) picolinamide], the IC50 at PI3Kα was at least 1000 nM; on PI3Kα H1047R, at least 1000 nM; in experiment [1] it was 1000 to 5000 nM; in experiment [2] it was at least 5000 nM.

Take `C[C@@H](Nc1ccc(Cl)nc1C(=O)NS(C)(=O)=O)c1cc(F)cc2c(=O)n(C)c(N3CCC(F)(F)CC3)nc12` [Compound 3, (R)-6-chloro-3-((1-(2-(4,4-difluoropiperidin-1-yl)-6-fluoro-3-methyl-4-oxo-3,4-dihydroquinazolin-8-yl)ethyl)amino)-N-(methylsulfonyl) picolinamide]: the IC50 at PI3Kα is at least 1000 nM; at PI3Kα H1047R, 250 to 500 nM; in experiment [1], under 250 nM; in experiment [2], 1000 to 5000 nM.

`C[C@@H](Nc1ccc(Cl)[nH]c1=O)c1cc(F)cc2c(=O)n(C)c(N3Cc4ccc(F)cc4C3)nc12` [Compound 99, (R)-8-(1-((6-chloro-2-oxo-1,2-dihydropyridin-3-yl)amino)ethyl)-6-fluoro-2-(5-fluoroisoindolin-2-yl)-3-methylquinazolin-4(3H)-one]: the IC50 is at least 1000 nM at PI3Kα, 100 to 250 nM at PI3Kα H1047R, 500 to 1000 nM in experiment [1] and at least 5000 nM in experiment [2].

For `Cc1cc([C@@H](C)Nc2ccc(Cl)nc2S(N)(=O)=O)c2nc(N3Cc4ccc(F)cc4C3)n(C)c(=O)c2c1` [Compound 76, (R)-6-chloro-3-((1-(2-(5-fluoroisoindolin-2-yl)-3,6-dimethyl-4-oxo-3,4-dihydroquinazolin-8-yl)ethyl)amino)pyridine-2-sulfonamide], the IC50 was at least 1000 nM at PI3Kα, under 100 nM on PI3Kα H1047R, 250 to 500 nM in experiment [1] and 1000 to 5000 nM in experiment [2].

In the case of `CCC(=O)NS(=O)(=O)c1nc(Cl)ccc1N[C@H](C)c1cc(C)cc2c(=O)n(C)c(N3Cc4ccc(F)cc4C3)nc12` [Compound 81, (R)-N-((6-chloro-3-((1-(2-(5-fluoroisoindolin-2-yl)-3,6-dimethyl-4-oxo-3,4-dihydroquinazolin-8-yl)ethyl)amino)pyridin-2-yl)sulfonyl)propionamide], the IC50 at PI3Kα is at least 1000 nM; at PI3Kα H1047R, under 100 nM; in experiment [1], 250 to 500 nM; in experiment [2] it was at least 5000 nM.

On to `Cc1cc([C@@H](C)Nc2ccc(Cl)nc2S(=O)(=O)NC(=O)N(C)C)c2nc(N3Cc4ccc(F)cc4C3)n(C)c(=O)c2c1` [Compound 71, (R)-6-chloro-N-(dimethylcarb-amoyl)-3-((1-(2-(5-fluoroisoindolin-2-yl)-3,6-dimethyl-4-oxo-3,4-dihydroquinazolin-8-yl)ethyl)amino)pyridine-2-sulfonamide], for which the IC50 at PI3Kα was at least 1000 nM; on PI3Kα H1047R, at least 1000 nM; in experiment [1], 1000 to 5000 nM; in experiment [2], at least 5000 nM.

On to `Cc1cc([C@@H](C)Nc2ccc(Cl)nc2C(=O)NS(C)(=O)=O)c2nc(N3C[C@@H]4C[C@H]3CO4)n(C)c(=O)c2c1` [Compound 27, 3-(((R)-1-(2-((1S,4S)-2-oxa-5-azabicyclo[2.2.1]heptan-5-yl)-3,6-dimethyl-4-oxo-3,4-dihydroquinazolin-8-yl)ethyl)amino)-6-chloro-N-(methylsulfonyl) picolinamide], for which the IC50 on PI3Kα was at least 1000 nM; on PI3Kα H1047R, 500 to 1000 nM; in experiment [1], under 250 nM; in experiment [2], 1000 to 5000 nM.

One may read the IC50 as the concentration needed to halve the response being measured.
